Data taken from ChEMBL document CHEMBL1144508, “Inhibitory activity of stilbenes on Alzheimer's beta-amyloid fibrils in vitro” (Bioorg Med Chem, 2007).
The source made the active and inactive calls. No cut-off for these calls is given here.

Experiments:
Homo sapiens = species: Homo sapiens; test: (§1) Antiamyloidogenic activity assessed as inhibition of beta amyloid (25-35) fibril formation after 6 hrs
[1] = as §1; parameters: species or system Homo sapiens

Structure (SMILES) | Activity (Homo sapiens) | EC50 [1] [µM]
O=c1oc2c(O)c(O)cc3c(=O)oc4c(O)c(O)cc1c4c23 | inactive | 
COc1cc(/C=C/C(=O)CC(=O)/C=C/c2ccc(O)c(OC)c2)ccc1O [CURCUMIN] |  | 10
OC[C@H]1O[C@@H](Oc2cc(O)cc(/C=C/c3ccc(O)cc3)c2)[C@H](O)[C@@H](O)[C@@H]1O [PICEID] |  | 4.7
Oc1ccc(/C=C/c2cc(O)cc(O)c2)cc1 [RESVERATROL] |  | 5.6
